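Following 48 hours of exposure in 96-well plates, responses at five concentrations were used to interpolate endpoints linearly. GI50 is the concentration that inhibits growth by half. TGI is the concentration that stops growth completely.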
What was measured:
Test in all cases: NCI anticancer screen, dose series, 48 h
[1] = system: A498 renal
[2] = system: BT-549 breast
[3] = system: CAKI-1 renal
[4] = system: COLO 205 colon
[5] = system: DU-145 prostate
[6] = system: HL-60(TB) leukemia
[7] = system: HS 578T breast
[8] = system: HT29 colon
[9] = system: M14 melanoma
[10] = system: MDA-MB-435
[11] = system: NCI-H226 lung
[12] = system: NCI-H522 lung
[13] = system: PC-3 prostate
[14] = system: RPMI-8226 leukemia
[15] = system: SF-295 CNS
[16] = system: SF-539 CNS
[17] = system: SK-MEL-5 melanoma
[18] = system: SK-OV-3 ovarian
[19] = system: SW-620 colon
[20] = system: T-47D breast
[21] = system: UACC-257 melanoma
[22] = system: UACC-62 melanoma
[23] = system: 786-0 renal
[24] = system: A549 NSCLC
[25] = system: ACHN renal
[26] = system: CCRF-CEM leukemia
[27] = system: EKVX NSCLC
[28] = system: HCC-2998 colon
[29] = system: HCT-116 colon
[30] = system: HCT-15 colon
[31] = system: HOP-62 NSCLC
[32] = system: HOP-92 NSCLC
[33] = system: IGROV1 ovarian
[34] = system: K-562 leukemia
[35] = system: KM12 colon
[36] = system: LOX IMVI melanoma
[37] = system: MALME-3M melanoma
[38] = system: MCF7 breast
[39] = system: MDA-MB-231 breast
[40] = system: NCI-H23 lung
[41] = system: NCI-H460 lung
[42] = system: NCI/ADR-RES ovarian
[43] = system: OVCAR-3 ovarian
[44] = system: OVCAR-4 ovarian
[45] = system: OVCAR-5 ovarian
[46] = system: OVCAR-8 ovarian
[47] = system: RXF 393 renal
[48] = system: SF-268 CNS
[49] = system: SK-MEL-2 melanoma
[50] = system: SK-MEL-28 melanoma
[51] = system: SN12C renal
[52] = system: SNB-19 CNS
[53] = system: SNB-75 CNS
[54] = system: TK-10 renal
[55] = system: U251 CNS
[56] = system: UO-31 renal

Which GI50 [1] does the source give for `CC(=O)Oc1c(C)c(C)c2c(c1C)CCC(C)(CC(=O)OCCCCCCCCCCC[P+](c1ccccc1)(c1ccccc1)c1ccccc1)O2` (centres undefined) here?
The GI50 was 385 nM.

And the TGI [1]?
The TGI was 2000 nM.

What about the GI50 [2] of the same compound?
Its GI50 is 314 nM.

And the TGI [2]?
Its TGI is 990 nM.

And the GI50 [3]?
Its GI50 is 1720 nM.

What about the TGI [3] of the same compound?
Its TGI is 3270 nM.

And the GI50 [4]?
The GI50 was 391 nM.

And the TGI [4]?
Its TGI is 1390 nM.

And the GI50 [5]?
The GI50 was 384 nM.

And the TGI [5]?
Its TGI is 1340 nM.

And the GI50 [6]?
Its GI50 is 228 nM.

And the TGI [6]?
The TGI was 926 nM.

And the GI50 [7]?
Its GI50 is 413 nM.

What about the TGI [7] of the same compound?
The TGI was 3280 nM.

What about the GI50 [8] of the same compound?
The GI50 was 707 nM.

What about the TGI [8] of the same compound?
The TGI was 2290 nM.

What about the GI50 [9] of the same compound?
The GI50 was 408 nM.

And the TGI [9]?
The TGI was 1560 nM.

What about the GI50 [10] of the same compound?
Its GI50 is 310 nM.

And the TGI [10]?
The TGI was 1200 nM.

What about the GI50 [11] of the same compound?
The GI50 was 386 nM.

What about the TGI [11] of the same compound?
Its TGI is 25400 nM.

And the GI50 [12]?
The GI50 was 210 nM.

And the TGI [12]?
Its TGI is 666 nM.

And the GI50 [13]?
The GI50 was 194 nM.

And the TGI [13]?
The TGI was 976 nM.

And the GI50 [14]?
The GI50 was 237 nM.

What about the TGI [14] of the same compound?
The TGI was 1150 nM.

And the GI50 [15]?
Its GI50 is 264 nM.

And the TGI [15]?
The TGI was 1090 nM.

What about the GI50 [16] of the same compound?
Its GI50 is 411 nM.

What about the TGI [16] of the same compound?
The TGI was 1470 nM.

And the GI50 [17]?
Its GI50 is 191 nM.

And the TGI [17]?
Its TGI is 359 nM.

And the GI50 [18]?
Its GI50 is 264 nM.

What about the TGI [18] of the same compound?
Its TGI is 932 nM.

What about the GI50 [19] of the same compound?
Its GI50 is 315 nM.

And the TGI [19]?
The TGI was 1330 nM.

What about the GI50 [20] of the same compound?
The GI50 was 72.7 nM.

What about the TGI [20] of the same compound?
The TGI was 736 nM.

And the GI50 [21]?
Its GI50 is 268 nM.

What about the TGI [21] of the same compound?
Its TGI is 780 nM.

And the GI50 [22]?
The GI50 was 291 nM.

What about the TGI [22] of the same compound?
The TGI was 982 nM.

Which results are given for `O=[N+]([O-])c1ccc(-c2cc3c(Nc4ccc(Cl)c(C(F)(F)F)c4)ncnc3s2)cc1`?
GI50 [23]: 1100 nM; TGI [23]: > 20600 nM; GI50 [1]: 706 nM; TGI [1]: 3420 nM; GI50 [24]: 1380 nM; TGI [24]: > 100000 nM; GI50 [25]: 2420 nM; TGI [25]: 7600 nM; GI50 [2]: 2910 nM; TGI [2]: > 100000 nM; GI50 [3]: 2220 nM; TGI [3]: 8320 nM; GI50 [26]: 1290 nM; TGI [26]: > 100000 nM; GI50 [4]: 1790 nM; TGI [4]: 3350 nM; GI50 [5]: 1630 nM; TGI [5]: > 100000 nM; GI50 [27]: 2610 nM; TGI [27]: > 100000 nM; GI50 [28]: 2020 nM; TGI [28]: > 100000 nM; GI50 [29]: 1510 nM; TGI [29]: > 100000 nM; GI50 [30]: 1010 nM; TGI [30]: > 100000 nM; GI50 [6]: 906 nM; TGI [6]: 3620 nM; GI50 [31]: 3130 nM; TGI [31]: > 100000 nM; GI50 [32]: 963 nM; TGI [32]: 4950 nM; GI50 [8]: 1490 nM; TGI [8]: > 100000 nM; GI50 [33]: 1620 nM; TGI [33]: > 100000 nM; GI50 [34]: 872 nM; TGI [34]: > 100000 nM; GI50 [35]: 1420 nM; TGI [35]: > 100000 nM; GI50 [36]: 1620 nM; TGI [36]: > 100000 nM; GI50 [9]: 2860 nM; TGI [9]: > 100000 nM; GI50 [37]: 1510 nM; TGI [37]: 4190 nM; GI50 [38]: 982 nM; TGI [38]: > 100000 nM; GI50 [39]: 382 nM; TGI [39]: 1630 nM; GI50 [10]: 2240 nM; TGI [10]: > 100000 nM; GI50 [11]: 2890 nM; TGI [11]: > 100000 nM; GI50 [40]: 1060 nM; TGI [40]: > 100000 nM; GI50 [41]: 774 nM; TGI [41]: > 100000 nM; GI50 [12]: 566 nM; TGI [12]: 5130 nM; GI50 [42]: 1360 nM; TGI [42]: > 100000 nM; GI50 [43]: 605 nM; TGI [43]: > 100000 nM; GI50 [44]: 1200 nM; TGI [44]: > 100000 nM; GI50 [45]: 1350 nM; TGI [45]: > 100000 nM; GI50 [46]: 2670 nM; TGI [46]: > 100000 nM; GI50 [13]: 802 nM; TGI [13]: > 100000 nM; GI50 [14]: 555 nM; TGI [14]: 2810 nM; GI50 [47]: 1790 nM; TGI [47]: 6190 nM; GI50 [48]: 1340 nM; TGI [48]: > 100000 nM; GI50 [15]: 1210 nM; TGI [15]: 6750 nM; GI50 [16]: 1880 nM; TGI [16]: 9400 nM; GI50 [49]: 2400 nM; TGI [49]: 6420 nM; GI50 [50]: 2240 nM; TGI [50]: > 100000 nM; GI50 [17]: 1130 nM; TGI [17]: 2580 nM; GI50 [18]: 2770 nM; TGI [18]: > 26300 nM; GI50 [51]: 1160 nM; TGI [51]: > 100000 nM; GI50 [52]: 1290 nM; TGI [52]: > 86400 nM; GI50 [53]: 1870 nM; TGI [53]: 9020 nM; GI50 [19]: 2860 nM; TGI [19]: > 100000 nM; GI50 [20]: 407 nM; TGI [20]: 6100 nM; GI50 [54]: 3560 nM; TGI [54]: > 100000 nM; GI50 [55]: 1380 nM; TGI [55]: > 87800 nM; GI50 [21]: 2950 nM; TGI [21]: > 26800 nM; GI50 [22]: 1630 nM; TGI [22]: > 100000 nM; GI50 [56]: 1130 nM; TGI [56]: > 26700 nM
